“And” between values parts separate entries of the source, which are not always exact repeats. Equal values may be shown once. Toxic doses and inconclusive results are not listed.

The test system of the assay is P388 leukemia ip, CD2F1 mice, survival T/C. The assay is described as follows: NCI In Vivo Anticancer Drug Screen. Data for tumor model P388 Leukemia (intraperitoneal) in CD2F1 (CDF1) mice. The note with it: endpoint: median survival time, higher = longer survival. A digest of the protocol: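 Mice carrying the transplanted tumor received test compound or vehicle. Survival was recorded in each group, and the value is the treated-group measurement divided by that of the vehicle-treated control group.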

The mark [1] stands for this setting: dose: 50.0 mg/kg/injection, schedule: Q01DX005 (ip), vehicle: saline.
The mark [2] stands for this setting: dose: 100.0 mg/kg/injection, schedule: Q01DX005 (ip), vehicle: saline.
Setting [3] is: dose: 200.0 mg/kg/injection, schedule: Q01DX005 (ip), vehicle: saline.
The mark [4] stands for this setting: dose: 12.5 mg/kg/injection, schedule: Q01DX009 (ip), vehicle: saline with Tween-80.
[5] abbreviates: dose: 25.0 mg/kg/injection, schedule: Q01DX009 (ip), vehicle: saline with Tween-80.
Setting [6] is: dose: 50.0 mg/kg/injection, schedule: Q01DX009 (ip), vehicle: saline with Tween-80.
[7] abbreviates: dose: 100.0 mg/kg/injection, schedule: Q01DX009 (ip), vehicle: saline with Tween-80.
The mark [8] stands for this setting: dose: 60.0 mg/kg/injection, schedule: Q01DX005 (ip), vehicle: saline with Tween-80.
Setting [9] is: dose: 120.0 mg/kg/injection, schedule: Q01DX005 (ip), vehicle: saline with Tween-80.
Where [10] appears, read: dose: 12.5 mg/kg/injection, schedule: Q04DX002 (ip), vehicle: saline with Tween-80.
The mark [11] stands for this setting: dose: 6.25 mg/kg/injection, schedule: Q01DX009 (ip), vehicle: saline.
Setting [12] is: dose: 12.5 mg/kg/injection, schedule: Q01DX009 (ip), vehicle: saline.
Where [13] appears, read: dose: 25.0 mg/kg/injection, schedule: Q01DX009 (ip), vehicle: saline.
[14] abbreviates: dose: 50.0 mg/kg/injection, schedule: Q01DX009 (ip), vehicle: saline.
Setting [15] is: dose: 200.0 mg/kg/injection, schedule: Q01DX009 (ip), vehicle: saline with Tween-80.

For `Cc1c(O)c(=O)ccn1CCO`, the T/C was 102 % of control and 104 % of control under setting [1]; 100 % of control and 106 % of control under setting [2]; 117 % of control and 124 % of control under setting [3].
Take `CC1CN(C(=O)/C=C/C(=O)OC2CCCCC2)C(C)CN1C(=O)/C=C/C(=O)OC1CCCCC1` (centres undefined): the T/C reads like this: (dose: 50.0 mg/kg/injection, schedule: Q01DX005 (ip), vehicle: Klucel (hydroxypropylcellulose) (HPC)) 98 % of control; (dose: 100.0 mg/kg/injection, schedule: Q01DX005 (ip), vehicle: Klucel (hydroxypropylcellulose) (HPC)) 94 % of control; (dose: 200.0 mg/kg/injection, schedule: Q01DX005 (ip), vehicle: Klucel (hydroxypropylcellulose) (HPC)) 97 % of control.
With `CO[C@H]1/C=C/O[C@@]2(C)Oc3c(C)c(O)c4c(O)c(c(/C=N/N5C(C)CN(Cc6ccc(C#N)cc6)CC5C)c(O)c4c3C2=O)NC(=O)/C(C)=C\C=C\[C@H](C)[C@H](O)[C@@H](C)[C@@H](O)[C@@H](C)[C@H](OC(C)=O)[C@@H]1C` (some centres undefined), the T/C reads like this: (dose: 12.5 mg/kg/injection, schedule: Q01DX009 (ip), vehicle: Klucel (hydroxypropylcellulose) (HPC)) 93 % of control; under setting [4], 107 % of control; (dose: 25.0 mg/kg/injection, schedule: Q01DX009 (ip), vehicle: Klucel (hydroxypropylcellulose) (HPC)) 87 % of control; under setting [5], 92 % of control; (dose: 50.0 mg/kg/injection, schedule: Q01DX009 (ip), vehicle: Klucel (hydroxypropylcellulose) (HPC)) 86 % of control; under setting [6], 100 % of control and 95 % of control. In addition, the T/C is, setting by setting: (dose: 100.0 mg/kg/injection, schedule: Q01DX009 (ip), vehicle: Klucel (hydroxypropylcellulose) (HPC)) 107 % of control; under setting [7], 113 % of control; (dose: 200.0 mg/kg/injection, schedule: Q01DX009 (ip), vehicle: Klucel (hydroxypropylcellulose) (HPC)) 107 % of control.
`CCN(CCOC(=O)Nc1ccc(Cl)cc1)C(=O)Nc1ccc(Cl)cc1`: the T/C is 90 % of control (dose: 60.0 mg/kg/injection, schedule: Q01DX005 (ip), vehicle: Klucel + Tween-80); 87 % of control (dose: 120.0 mg/kg/injection, schedule: Q01DX005 (ip), vehicle: Klucel + Tween-80); 87 % of control (dose: 240.0 mg/kg/injection, schedule: Q01DX005 (ip), vehicle: Klucel + Tween-80).
As for `NC(=O)c1ncn(C2OC(CO)C(O)C2O)n1` (centres undefined), the T/C was 99 % of control and 101 % of control (dose: 10.0 mg/kg/injection, schedule: Q01DX009 (ip), vehicle: saline); 104 % of control (dose: 20.0 mg/kg/injection, schedule: Q01DX009 (ip), vehicle: saline); 105 % of control and 106 % of control and 109 % of control (dose: 40.0 mg/kg/injection, schedule: Q01DX009 (ip), vehicle: saline); 108 % of control and 112 % of control and 118 % of control (dose: 80.0 mg/kg/injection, schedule: Q01DX009 (ip), vehicle: saline); 122 % of control (dose: 160.0 mg/kg/injection, schedule: Q01DX009 (ip), vehicle: saline); 87 % of control (dose: 320.0 mg/kg/injection, schedule: Q01DX009 (ip), vehicle: saline).
Turning to `C[n+]1ccccc1-c1ccc[n+](CCCC[n+]2cccc(-c3cccc[n+]3C)c2)c1`, the T/C is, setting by setting: under setting [8], 106 % of control; under setting [9], 116 % of control.
Turning to `CCCCCCCCCCCCN1C(C)=CS/C1=C\C=C\c1scc(C)[n+]1CCCCCCCCCCCC`, the T/C (dose: 0.75 mg/kg/injection, schedule: Q01DX005 (ip), vehicle: saline with Tween-80) is 110 % of control; the T/C (dose: 3.0 mg/kg/injection, schedule: Q01DX005 (ip), vehicle: saline with Tween-80) was 119 % of control; the T/C (dose: 3.12 mg/kg/injection, schedule: Q04DX002 (ip), vehicle: saline with Tween-80) was 150 % of control; the T/C (dose: 6.25 mg/kg/injection, schedule: Q04DX002 (ip), vehicle: saline with Tween-80) is 150 % of control and 157 % of control; the T/C under setting [10] was 160 % of control and 163 % of control.
As for `Cc1ccc(NC(=O)c2cc3ccccc3c(N=Nc3ccccc3O)c2O)c(C)c1`, the T/C is, setting by setting: under setting [8], 94 % of control; under setting [9], 109 % of control; (dose: 240.0 mg/kg/injection, schedule: Q01DX005 (ip), vehicle: saline with Tween-80) 97 % of control.
For the compound `Nc1cc(I)c2cccnc2c1O`, the T/C is 119 % of control under setting [11]; 115 % of control under setting [12]; 98 % of control (dose: 16.0 mg/kg/injection, schedule: Q01DX009 (ip), vehicle: saline); 92 % of control and 98 % of control under setting [13]; 107 % of control (dose: 35.0 mg/kg/injection, schedule: Q01DX009 (ip), vehicle: saline); 119 % of control under setting [14].
For `CN=C(N)NN=C(c1ccc(F)cc1)c1ccc(F)cc1`, the T/C under setting [10] was 100 % of control and 106 % of control; the T/C (dose: 50.0 mg/kg/injection, schedule: Q04DX002 (ip), vehicle: saline with Tween-80) is 87 % of control.
With `C[C](C)(C)[Sn](=[O])[C](C)(C)C`, the T/C runs as follows: under setting [11], 95 % of control; under setting [12], 97 % of control; under setting [13], 99 % of control.
`CSC(=S)n1nc(C)c(N=Nc2ccc(F)cc2)c1C`: the T/C by setting is: (dose: 100.0 mg/kg/injection, schedule: Q01DX001 (ip), vehicle: saline with Tween-80) 92 % of control; (dose: 200.0 mg/kg/injection, schedule: Q01DX001 (ip), vehicle: saline with Tween-80) 92 % of control; (dose: 400.0 mg/kg/injection, schedule: Q01DX001 (ip), vehicle: saline with Tween-80) 97 % of control.
Consider `COc1cc([C@@H]2c3cc4c(cc3[C@H](OC(=O)CCC(=O)O)[C@H]3COC(=O)[C@H]23)OCO4)cc(OC)c1OC`, for which the T/C reads like this: (dose: 6.25 mg/kg/injection, schedule: Q01DX005 (ip), vehicle: saline with Tween-80) 106 % of control; (dose: 12.5 mg/kg/injection, schedule: Q01DX005 (ip), vehicle: saline with Tween-80) 122 % of control; (dose: 25.0 mg/kg/injection, schedule: Q01DX005 (ip), vehicle: saline with Tween-80) 113 % of control.
As for `O=C1C(=O)c2ccccc2C(O)=C1CCCc1ccc(C2CCCCCC2)cc1`, the T/C was 86 % of control under setting [5], 88 % of control under setting [6], 89 % of control under setting [7] and 95 % of control under setting [15].
Turning to `Cc1cc(=O)[nH]c(=O)n1C1OC(CO)C(O)C1O` (centres undefined), the T/C under setting [1] is 109 % of control, the T/C under setting [2] is 103 % of control and the T/C under setting [3] was 112 % of control.
Consider `O=[N+]([O-])C1CCC(O)C([N+](=O)[O-])C1` (centres undefined) (tested in a mixture with another compound), for which the T/C (dose: 6.25 mg/kg/injection, schedule: Q01DX009 (ip), vehicle: saline with Tween-80) was 100 % of control; the T/C under setting [4] was 96 % of control; the T/C under setting [5] was 99 % of control.
In the case of `CC(C)OS(=O)(=O)c1ccc([N+](=O)[O-])cc1`, the T/C was 94 % of control under setting [14]; 100 % of control (dose: 100.0 mg/kg/injection, schedule: Q01DX009 (ip), vehicle: saline); 105 % of control (dose: 200.0 mg/kg/injection, schedule: Q01DX009 (ip), vehicle: saline).
As to `CCC[CH2][Sn]1([CH2]CCC)[O]OC(c2ccc(C)cc2)[O]1` (centres undefined), the T/C (dose: 0.19 mg/kg/injection, schedule: Q01DX009 (ip), vehicle: saline with Tween-80) is 102 % of control; the T/C (dose: 0.38 mg/kg/injection, schedule: Q01DX009 (ip), vehicle: saline with Tween-80) is 94 % of control; the T/C (dose: 0.75 mg/kg/injection, schedule: Q01DX009 (ip), vehicle: saline with Tween-80) is 116 % of control.
For the compound `COC(c1ccc(OCc2ccccc2)cc1)C(Br)C(=O)c1ccc(Cl)cc1Cl` (centres undefined), the T/C under setting [6] was 88 % of control, the T/C under setting [7] was 101 % of control and the T/C under setting [15] is 88 % of control.
On to `CC1(C)C(c2ccccc2)C1(Cl)Cl` (centres undefined), for which the T/C by setting is: (dose: 100.0 mg/kg/injection, schedule: Q04DX002 (ip), vehicle: saline with Tween-80) 99 % of control; (dose: 200.0 mg/kg/injection, schedule: Q04DX002 (ip), vehicle: saline with Tween-80) 93 % of control.
On to `COC(=O)C1CC2C(=O)N(C)C(Br)C(Br)C12` (centres undefined), for which the T/C by setting is: (dose: 100.0 mg/kg/injection, schedule: Q04DX002 (ip), vehicle: saline) 101 % of control; (dose: 200.0 mg/kg/injection, schedule: Q04DX002 (ip), vehicle: saline) 95 % of control.

The values are drawn from PubChem BioAssay AID330 (DTP/NCI, 2004).
